Counter-ions that a name gives are not always drawn.
What follows are compounds tested against T1, Human recombinant enteropeptidase (Homo sapiens, UniProt P98073) (assay: Human enteropeptidase inhibitory activity (Test Example 1)). Conditions: 3.3 μM test compound; inhibition rate from fluorescence intensity at 2 hours after the start of the reaction.
T1 construct: purchased ITSI-Biosciences LLC #REN-260
Format: biochemical
Description: Human recombinant enteropeptidase (#REN-260, ITSI-Biosciences LLC) was diluted with an assay buffer (50 mM Tricine, pH 8.0, 0.01 (w/v) %, Tween 20, 10 mM CaCl2) to prepare a 24 mU/mL enzyme solution. Subsequently, 5FAM-Abu-Gly-Asp-Asp-Asp-Lys-Ile-Val-Gly-Gly-Lys(CPQ2)-Lys-Lys-NH2 (SEQ ID NO: 1, purity: 97.2%, CPC Scientific Inc.) was diluted with the assay buffer to prepare a 2.1 μM substrate solution. A test compound is dissolved in DMSO into a 1 mM solution, and the solution was diluted by 100-fold with the assay buffer to give a compound solution. To a 384-well black plate (#784076, Greiner Bio-One), 5 μL of the compound solution and 5 μL of the substrate solution were added and mixed, and 5 μL of the enzyme solution was then added to the mixture, followed by mixing to start the reaction. The fluorescence intensity was measured with a fluorescence plate reader EnVision (The Perkin-Elmer Corp.) at an excitation wavelength of 485 nm and a fluorescence wavelength of 535 nm. The same reaction as above except that the test compound was not contained was performed (test compound non-addition group). Furthermore, the same reaction as above except that the test compound and the enzyme were not contained was performed (control group). The inhibition rate was calculated using the fluorescence intensity at 2 hours after the start of the reaction by the following expression: Inhibition rate (%)=(1−((fluorescence intensity of test compound addition group)−(fluorescence intensity of control group))/((fluorescence intensity of test compound non-addition group)−(fluorescence intensity of control group)))×100

T1 sequence (P98073 whole entry): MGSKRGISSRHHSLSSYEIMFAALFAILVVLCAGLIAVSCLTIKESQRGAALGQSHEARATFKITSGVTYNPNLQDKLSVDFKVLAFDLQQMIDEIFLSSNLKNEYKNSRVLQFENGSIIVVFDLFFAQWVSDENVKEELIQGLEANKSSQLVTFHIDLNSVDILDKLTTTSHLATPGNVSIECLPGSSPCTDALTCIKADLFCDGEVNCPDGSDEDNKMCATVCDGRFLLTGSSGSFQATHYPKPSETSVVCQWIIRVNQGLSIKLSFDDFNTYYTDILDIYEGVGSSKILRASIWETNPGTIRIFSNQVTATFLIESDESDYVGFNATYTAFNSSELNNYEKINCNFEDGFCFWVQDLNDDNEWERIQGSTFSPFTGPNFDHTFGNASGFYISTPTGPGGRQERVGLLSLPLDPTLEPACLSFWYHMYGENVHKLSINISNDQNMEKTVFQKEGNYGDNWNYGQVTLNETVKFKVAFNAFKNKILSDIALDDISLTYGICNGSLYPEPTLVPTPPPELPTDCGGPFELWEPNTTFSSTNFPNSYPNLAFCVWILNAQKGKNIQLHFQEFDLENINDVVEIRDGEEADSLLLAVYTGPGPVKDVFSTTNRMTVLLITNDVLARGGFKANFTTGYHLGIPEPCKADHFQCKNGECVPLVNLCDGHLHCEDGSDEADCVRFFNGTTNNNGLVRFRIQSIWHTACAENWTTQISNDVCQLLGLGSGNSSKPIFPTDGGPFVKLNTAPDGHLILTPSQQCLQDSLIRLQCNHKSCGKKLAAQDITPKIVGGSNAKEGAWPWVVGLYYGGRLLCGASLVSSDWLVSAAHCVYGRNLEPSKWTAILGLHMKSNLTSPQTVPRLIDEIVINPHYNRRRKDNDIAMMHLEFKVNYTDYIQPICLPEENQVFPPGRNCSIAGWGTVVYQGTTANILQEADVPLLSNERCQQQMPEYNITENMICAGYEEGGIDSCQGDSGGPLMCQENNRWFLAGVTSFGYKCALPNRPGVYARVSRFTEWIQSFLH

Row | 3.3 μM Inhibition | Compound
1 | 101% | N=C(N)Nc1ccc2c(c1)OCCCOc1cc(CCC(=O)N[C@@H](CC(=O)O)C(=O)O)ccc1OC2=O [Example 51, N-(3-(3-carbamimidamido-15-oxo-7,8-dihydro-6H,15H-dibenzo[b,f][1,4,8]trioxacyclo-undecin-11-yl)propanoyl) aspartic acid]

Same assay, conditions: 3.3 μM test compound; inhibition rate from fluorescence intensity at 2 hours after the start of the reaction; read-out: 3.3 μM Inhibition

Row | inhibition at 3.3 µM | Compound
2 | 99% | N#Cc1cc2c(c(C(=O)N[C@@H](CC(=O)O)C(=O)O)c1)OCCCc1cc(NC(=N)N)ccc1C(=O)O2 [Example 114, N-((10-Carbamimidamido-2-cyano-13-oxo-6,7,8,13-tetrahydrodibenzo[b,f][1,4]dioxecin-4-yl)carbonyl)-L-aspartic acid]
3 | 95% | N=C(N)c1ccc2c(c1)CCCCc1c(C(=O)N[C@@H](CC(=O)O)C(=O)O)cccc1C(=O)O2 [Example 98, N-((10-carbamimidoyl-14-oxo-5,7,8,14-tetrahydro-6H-dibenzo[b,h]oxecin-4-yl)carbonyl)-L-aspartic acid]
4 | 101% | CN(C(=O)c1cccc2c1OCCCc1cc(NC(=N)N)ccc1C(=O)O2)[C@@H](CC(=O)O)C(=O)O [Example 85, N-((10-carbamimidamido-13-oxo-6,7,8,13-tetrahydrodibenzo[b,f] [1,4]dioxecin-4-yl)carbonyl)-N-methyl-L-aspartic acid]
5 | 100% | N=C(N)Nc1ccc2c(c1)CCCOc1c(CCC(=O)N[C@@H](CC(N)=O)C(=O)O)cccc1OC2=O [Example 97, N^~2^~-(3-(10-carbamimidamido-13-oxo-6,7,8,13-tetrahydro-dibenzo[b,f] [1,4]dioxecin-4-yl)propanoyl)-L-asparagine]
6 | 99% | N=C(N)Nc1ccc2c(c1)CCCOc1c(cccc1C(=O)N(Cc1cccc(C(=O)O)c1)C(CC(=O)O)CC(=O)O)OC2=O [Example 144, 3-(((10-Carbamimidamido-13-oxo-6,7,8,13-tetrahydrodibenzo[b,f][1,4]dioxecin-4-yl)carbonyl) (3-carboxybenzyl)amino)pentanedioic acid]
7 | 101% | CN(CC(=O)N(C)[C@@H](CC(=O)O)C(=O)O)C(=O)c1cccc2c1OCCCc1cc(NC(=N)N)ccc1C(=O)O2 [Example 105, N-((10-carbamimidamido-13-oxo-6,7,8,13-tetrahydro-dibenzo[b,f] [1,4]dioxecin-4-yl)carbonyl)-N-methylglycyl-N-methyl-L-aspartic acid]
8 | 101% | N=C(N)Nc1ccc2c(c1)CCCOc1c(cccc1C(=O)NCC(=O)O)OC2=O [Example 89, N-((10-carbamimidamido-13-oxo-6,7,8,13-tetrahydro-dibenzo[b,f] [1,4]dioxecin-4-yl)carbonyl)glycine]
9 | 101% | CN(C(=O)c1c(CCC(=O)O)ccc2c1OCCCc1cc(NC(=N)N)ccc1C(=O)O2)[C@@H](CC(=O)O)C(=O)O [Example 118, N-((10-Carbamimidamido-3-(2-carboxyethyl)-13-oxo-6,7,8,13-tetrahydrodibenzo[b,f][1,4]dioxecin-4-yl)carbonyl)-N-methyl-L-aspartic acid]
10 | 102% | N=C(N)Nc1ccc2c(c1)CCCOc1c(cccc1C(=O)N(CC(=O)O)Cc1cc(C(=O)O)cc(C(=O)O)c1)OC2=O [Example 146, 5-((((10-carbamimidamido-13-oxo-6,7,8,13-tetrahydro-dibenzo[b,f] [1,4]dioxecin-4-yl)carbonyl)-(carboxy-methyl)-amino)methyl) isophthalic acid]
11 | 100% | N=C(N)Nc1ccc2c(c1)CCCOc1c(ccc(CCC(=O)O)c1C(=O)N[C@@H](CC(=O)O)C(=O)O)OC2=O [Example 110, N-((10-Carbamimidamido-3-(2-carboxyethyl)-13-oxo-6,7,8,13-tetrahydrodibenzo[b,f][1,4]dioxecin-4-yl)carbonyl)-L-aspartic acid]
12 | 100% | N=C(N)Nc1ccc2c(c1)CCCOc1c(cccc1C(=O)N(CCOCc1ccccc1)C(CC(=O)O)C(=O)O)OC2=O (stereo not shown) [Example 137]
13 | 101% | N=C(N)Nc1ccc2c(c1)CCCOc1c(cccc1C(=O)NCC(=O)N[C@@H](CC(=O)O)C(=O)O)OC2=O [Example 100, N-((10-carbamimidamido-13-oxo-6,7,8,13-tetrahydro-dibenzo[b,f] [1,4]dioxecin-4-yl)carbonyl)glycyl-L-aspartic acid]
14 | 99% | N=C(N)Nc1ccc2c(c1)CCCCCCc1c(cccc1C(=O)N[C@@H](CC(=O)O)C(=O)O)OC2=O [Example 77, N-((3-Carbamimidamido-16-oxo-5,7,8,9,10,16-hexahydro-6H-dibenzo[b,j]oxacyclododecin-11-yl)carbonyl)-L-aspartic acid]
15 | 102% | N=C(N)Nc1ccc2c(c1)CCCOc1c(CCC(=O)O)cccc1OC2=O [Example 91, 3-(10-Carbamimidamido-13-oxo-6,7,8,13-tetrahydrodibenzo[b,f][1,4]dioxecin-4-yl)propanoic acid trifluoroacetate]
16 | 100% | N=C(N)Nc1ccc2c(c1)CCCOc1c(cccc1C(=O)N(CC(=O)O)CC(=O)N(CC(=O)O)Cc1cccc(C(=O)O)c1)OC2=O [Example 141, N-((10-Carbamimidamido-13-oxo-6,7,8,13-tetrahydrodibenzo[b,f][1,4]dioxecin-4-yl)carbonyl)-N-(carboxymethyl)glycyl-N-(3-carboxybenzyl)glycine]
17 | 100% | N=C(N)Nc1ccc2c(c1)CCCc1cc(C(=O)N[C@@H](CC(=O)O)C(=O)O)ccc1OC2=O [Example 73, N-((9-carbamimidamido-6-oxo-6,11,12,13-tetrahydro-dibenzo[b,g]oxonin-2-yl)carbonyl)-L-aspartic acid]
18 | 101% | Cc1cc2c(c(C(=O)N[C@@H](CC(=O)O)C(=O)O)c1)CCCCc1cc(NC(=N)N)ccc1C(=O)O2 [Example 72, N-((3-carbamimidamido-11-methyl-14-oxo-5,7,8,14-tetrahydro-6H-dibenzo[b,h]oxecin-9-yl)carbonyl)-L-aspartic acid]

Continued, compound first:

Row | Compound | inhibition at 3.3 µM
19 | COc1cc2c(c(C(=O)N[C@@H](CC(=O)O)C(=O)O)c1)CCCCc1cc(NC(=N)N)ccc1C(=O)O2 [Example 67, N-((3-Carbamimidamido-11-methoxy-14-oxo-5,7,8,14-tetrahydro-6H-dibenzo[b,h]oxecin-9-yl)carbonyl)-L-aspartic acid] | 100%
20 | N=C(N)Nc1ccc2c(c1)CCCOc1cc(C(=O)N[C@H](CC(=O)O)C(=O)O)ccc1OC2=O (stereo in doubt) [Example 45, N-((10-carbamimidamido-13-oxo-6,7,8,13-tetrahydro-dibenzo[b,f] [1,4]dioxecin-3-yl)carbonyl)aspartic acid] | 100%
21 | N=C(N)Nc1ccc2c(c1)CCCOc1c(cccc1C(=O)NC(CC(=O)O)CC(=O)O)OC2=O [Example 11, 3-(((10-Carbamimidamido-13-oxo-6,7,8,13-tetrahydrodibenzo[b,f][1,4]dioxecin-4-yl)carbonyl)amino)pentanedioic acid] | 101%
22 | N=C(N)Nc1ccc2c(c1)CCCCc1c(cccc1C(=O)N[C@@H](CC(=O)O)C(=O)O)OC2=O [Example 37, N-((3-Carbamimidamido-14-oxo-5,7,8,14-tetrahydro-6H-dibenzo[b,h]oxecin-9-yl)carbonyl)-L-aspartic acid] | 101%
23 | N=C(N)Nc1ccc2c(c1)CCCCc1c(cccc1C(=O)O)OC2=O [Example 34, 3-carbamimidamido-14-oxo-6,7,8,14-tetrahydro-6H-dibenzo[b, h]oxecine-9-carboxylic acid] | 75%
24 | N=C(N)Nc1ccc2c(c1)CCCOc1c(cccc1C(=O)N(CCC(=O)O)CCC(=O)O)OC2=O [Example 9, 3,3′-(((10-carbamimidamido-13-oxo-6,7,8,13-tetrahydro-dibenzo[b,f] [1,4]dioxecin-4-yl)carbonyl)imino) dipropanoic acid (non-preferred name)] | 101%
25 | N=C(N)c1ccc2c(c1)CCc1cc(C(=O)N[C@@H](CC(=O)O)C(=O)O)ccc1C(=O)O2 [Example 63, N-((2-carbamimidoyl-6-oxo-11,12-dihydro-6H-dibenzo[b,f]oxocin-9-yl)carbonyl)-L-aspartic acid] | 93%
26 | N=C(N)Nc1ccc2c(c1)CCCOc1c(cccc1C(=O)N(CC(=O)O)[C@@H](CC(N)=O)C(=O)O)OC2=O [Example 65, N^2-((10-Carbamimidamido-13-oxo-6,7,8,13-tetrahydrodibenzo[b,f][1,4]dioxecin-4-yl)carbonyl)-N^2-(carboxymethyl)-L-asparagine] | 100%
27 | Cc1cc2c(c(C(=O)N[C@@H](CC(=O)O)C(=O)O)c1)OCCCc1cc(NC(=N)N)ccc1C(=O)O2 [Example 70, N-((10-carbamimidamido-2-methyl-13-oxo-6,7,8,13-tetrahydro-dibenzo[b,f] [1,4]dioxecin-4-yl)carbonyl)-L-aspartic acid] | 102%
28 | N=C(N)Nc1ccc2c(c1)CCc1ccccc1OC2=O [Example 58, 1-(6-Oxo-11,12-dihydro-6H-dibenzo[b,f]oxocin-9-yl)guanidine trifluoroacetate] | 55%
